From patent US11986513B2, “GAL(1-15) and analogues thereof for use in the prevention and/or treatment of alcohol-related effects and disorders” (UNIVERSIDAD DE MÁLAGA, priority 2017, dated 2024)

Columns and labels:
Assay type in all cases: in vivo, rat
rats [1] = experiment: Ethanol self-administration (operant model)
Description: The use of operant models as substance self-administration models are widely used for performing motivation or hedonic studies. In these models, the animal has to “work” to obtain the reinforcing substance by pressing a lever, which allows the investigator to observe the animal's interest in the substance, as well as to learn the effect of the substance as a reward for the animal (Leeman et al., 2010). The method is performed according to earlier protocols (Alén et al., 2009) with some modifications. The test consists of a two-week training phase in which rats are kept the first 2 to 4 days with a water restriction to facilitate the learning of the task of pressing the lever to obtain the reinforcement. Animals are exposed daily to 30-minute sessions in self-administration boxes (Letica instruments). The boxes are equipped with two retractable levers located on both sides of a liquid dispenser (0.1 mL) positioned in the centre of the box panel. […] Once the training period is over, where all the animals have proven to have learned the task, daily sessions continue to be performed until establishing a stable baseline. Then training begins for ethanol consumption, and for this purpose a gradual increase in ethanol concentration (from 2% to 10%) is performed at the same time as a gradual reduction in saccharin concentration (from 0.16% to 0%) over several days, where after this period the animals become accustomed consuming 10% ethanol. After several sessions to establish a stable baseline, the animals are subjected to placement of a chronic intracerebroventricular cannula, leaving them for several days after this intervention to again establish a stable ethanol consumption baseline. Then the test is performed, consisting of a 30-minute session after administration of the different treatments, recording the number of active lever presses, as well as the number of rewards (FIG. 7).
Two sets of ethanol self-administration experiments were performed. In the first set of experiments, a dose-response curve of GAL(1-15) was performed. For this, groups of rats received i.c.v. GAL(1-15) at doses of 0.3, 1, and 3 nmol, or vehicle. In the second set of experiments, the effect of GAL 3 nmol and GAL(1-15) 3 nmol in ethanol self-administration were compared.

rats [2] = experiment: Two-bottle choice test for voluntary ethanol consumption and preference; details: for preference for ethanol compared with GAL / ethanol intake compared with GAL: 3 nmol i.c.v. each
Description: Male Sprague—Dawley rats (body weight 225-250 g, age 8 weeks) were obtained from Criffa and maintained in a humidity-controlled and temperature-controlled (20-22° C.) room. The rats in the two-bottle choice paradigm were during the entire protocol maintained on a 12-hour reversed light/dark cycle (lights off at 10 am) whereas the other rats were kept on 12-hour light/dark cycle. The animals had free access to food pellets and tap water. All animal experimentation was conducted in accordance with the University of Malaga Guidelines for the Care and Use of Laboratory Animals.
This protocol has been used previously (Diaz-Cabiale et al., 2011; Millon et al., 2015). Briefly, the rats were anaesthetised intraperitoneally with Equitesin (3.3 ml/kg body weight) and stereotaxically implanted with a unilateral chronic 22-gauge stainless steel guide cannula into the right lateral cerebral ventricle using the following coordinates: 1.4 mm lateral and 1 mm posterior to bregma and 3.6 mm below the surface of the skull (Paxinos, 1986). After surgery, animals were individually housed and allowed a recovery period of 7 days. The injections in the lateral ventricle were performed using a 26-gauge stainless steel injection cannula connected via PE-10 tubing to a Hamilton syringe. The total volume was 5 μl per injection, and the infusion time was 1 minute.
The solutions were prepared freshly, and the peptides were dissolved in artificial cerebrospinal fluid (with a composition of […], […] NaH2CO3, […] KCl, 0.5 nM KH2PO4, 1.2 nM CaCl2, 1.8 nM MgCl2, 0.5 nM Na2SO4, and 5.8 nM D-glucose, pH 7.4). GAL was obtained from NeoMPS, Strasbourg, France; GAL(1-15) and the GALR2 receptor antagonist M871 were obtained from Tocris Bioscience, Bristol, UK.
The two-bottle choice test was used to determine the voluntary ethanol consumption of rats as described previously (Castilla-Ortega et al., 2016). Briefly, after 7 days of water consumption (both bottles), a choice between water and increasing concentrations of ethanol [3, 6, and 10% (v/v)] was offered for 7 days each. A choice between 10% ethanol (v/v) and water was offered for several days until reaching a stable baseline value. Water and ethanol consumption were recorded daily. The position of the bottles was changed every day to avoid preference for location. Water intake (g/kg), ethanol intake (g/kg), and preference ([ethanol consumption/total fluid [water plus ethanol] consumption×100]) were calculated for each animal. Throughout the experiment, evaporation and spillage estimates were calculated using an empty cage with two bottles, one containing water and the other containing the appropriate ethanol solution. In the experiments, a choice between ethanol (10%) and water was offered.
Three sets of experiments were conducted in the two bottle choice paradigm. In the first set of experiments, a dose-response curve of GAL(1-15) was performed. For this, groups of rats received i.c.v. 1 nmol or 3 nmol of GAL(1-15), or vehicle 2, 14, and 24 hours before the measurements. In the second set of experiments, the effects of the two-bottle choice test for GAL and GAL(1-15) were compared. For this, groups of rats received i.c.v. 3 nmol of GAL, 3 nmol of GAL(1-15), or vehicle, 2, 14, and 24 hours before the test. In the last set of experiments, the role of GALR2 was studied; for this, groups of rats received i.c.v. 3 nmol of GAL(1-15) combined with 3 nmol of GALR2 […] before the measurements.

GALR2 = GALR2 mRNA expression in the corpus striatum during voluntary ethanol consumption (RT-PCR); details: 3 nmol i.c.v., 2 hours after administration, two-bottle choice rats, versus vehicle/EtOH (p=0.101)
Description: (§1) Groups of rats from the two-bottle choice paradigm were killed by decapitation 2 hours after a single i.c.v. administration of 3 nmol of GAL(1-15) or vehicle, and the corpus striatum was dissected and frozen on solid CO2 until mRNA expression analysis.

GALR1 = GALR1 mRNA expression in the corpus striatum during voluntary ethanol consumption (RT-PCR); details: 3 nmol i.c.v., 2 hours after administration, two-bottle choice rats, versus vehicle/EtOH
Description: as §1

Rab5 = Rab5 mRNA expression in the corpus striatum during voluntary ethanol consumption (RT-PCR); details: 3 nmol i.c.v., 2 hours after administration, two-bottle choice rats, versus vehicle/EtOH
Description: as §1

C-Fos = C-Fos mRNA expression in the corpus striatum during voluntary ethanol consumption (RT-PCR); details: 3 nmol i.c.v., 2 hours after administration, two-bottle choice rats, versus vehicle/EtOH
Description: as §1

rats [3] = experiment: Locomotor activity (open field), ethanol-reduced locomotion; details: GAL(1-15) 3 nmol i.c.v. 20 min before test
Description: In this experiment, the effects of GAL(1-15) (3 nmol) on ethanol-reduced locomotion (1.75 g/kg; intraperitoneal (i.p.)) (Vallof et al., 2016) were investigated. Locomotor activity was recorded in rat open field (100×100×50 cm) where animals were individually placed and left to freely explore. Their behaviour was recorded over a 30-minute period by ceiling-mounted video camera, and locomotor activity was analysed using the video-tracking software EthovisionXT. After each assay, all surfaces were cleaned with a paper towel and 70% ethanol solution. For locomotor activity, total distance travelled (cm) and mean speed (cm/s) were recorded. Groups of rats were administered via i.c.v. GAL(1-15) or vehicle 20 minutes before the test; i.p. ethanol (1.75 g/kg) or saline solution administration was performed 5 minutes before the test.

[4] = 3 nmol i.c.v. each, 2, 14, 24 hours
[5] = i.c.v., any dose (1 or 3 nmol), any time point

Gly-Trp-Thr-Leu-Asn-Ser-Ala-Gly-Tyr-Leu-Leu-Gly-Pro-His-Ala (GWTLNSAGYLLGPHA; General formula for GAL 1-15) [GAL(1-15)]
number of reinforcements in ethanol self-administration (rats [1]; 0.3 nmol i.c.v. 15 min before the test): no effect
number of ethanol reinforcements (rats [1]; 1 nmol i.c.v. 15 min before the test, versus control): significant decrease
number of ethanol reinforcements (reduction) (rats [1]; 3 nmol i.c.v. 15 min before the test, versus control): even more pronounced
number of ethanol reinforcements compared with GAL (rats [1]; 3 nmol i.c.v. each, 15 min before the test): significantly reduces
preference for ethanol (rats [2]; 1 nmol i.c.v.): no effects
ethanol intake (rats [2]; 1 nmol i.c.v., all the time points analysed (2, 14, 24 hours)): no effect
food intake, difference between GAL and GAL(1-15) (rats [2]; [4]): No differences were found
water intake, difference between GAL and GAL(1-15) (rats [2]; [4]): No differences were found
preference for ethanol compared with GAL (rats [2]; 2 hours after administration): decreased
ethanol intake compared with GAL (rats [2]; 2 hours after injection): significantly decreased
ethanol intake compared with GAL (rats [2]; 14 hours after injection): significantly decreased
ethanol intake compared with GAL (rats [2]; 24 hours after injection): significantly decreased
preference for ethanol compared with GAL (rats [2]; 24 hours later): maintained
decrease in the preference for ethanol (rats [2]; 3 nmol i.c.v., 2 hours after administration): 90%
ethanol intake (rats [2]; 3 nmol i.c.v., 2 hours after administration, 10% ethanol vs water, versus vehicle): significantly decreased
ethanol intake (rats [2]; 3 nmol i.c.v., 14 hours after administration, 10% ethanol vs water, versus vehicle): significantly decreased
preference for ethanol (decrease) (rats [2]; 3 nmol i.c.v., 24 hours): maintained
ethanol intake (rats [2]; 3 nmol i.c.v., 24 hours after administration, 10% ethanol vs water, versus vehicle): significantly decreased
food intake (rats [2]; [5]): no differences were found
water intake (rats [2]; [5]): no differences were found
GALR2 expression in corpus striatum (GALR2): slight reduction
GALR1 mRNA levels in corpus striatum (GALR1): significant decrease
mRNA levels of Rab5 in corpus striatum (Rab5): significant increase
mRNA levels of C-Fos in corpus striatum (C-Fos): significant increase
distance travelled (rats [3]; rats given i.p. ethanol 1.75 g/kg): decreased
distance travelled (rats [3]; rats given systemic saline solution): no such effects were observed
mean speed (rats [3]; rats systemically treated with ethanol 1.75 g/kg): decreased
